Results published in US11135457B2, “Skincare compositions” (Reckitt Benckiser Healthcare International Limited, priority 2009, dated 2021).

How the values were obtained:
Format in all cases: cell-based
IL-6 = assay: In vitro EpiDerm skin model, PMA irritant: IL-6 release; details: for IL-6 + PMA: + PMA irritant; for IL-6 no PMA: no PMA irritant
Method: (§1) The purpose of the in vitro testing was to evaluate the potential anti-inflammatory action of compositions according to the present invention.
(§2) In vitro tests were carried out as follows: • take an irritant treated EpiDerm™ skin model. Initial inflammation was measured by the cytokine release after exposure to a single dose of irritant. • apply test compositions to the irritant treated EpiDerm skin • anti-inflammatory potential was then measured by reduction in cytokine release • specifically, the levels of cytokines TNF-α, IL-6 and IL-8 were measured to give a picture of the performance of the product across the lifecycle of an acne event or related skin inflammation.
(§3) Experimental design follows standard procedures, using phorbol-12-myristate 13-acetate (PMA) as irritant. Test samples were applied by pipette as solutions to the Epiderm tissue, and each sample was tested in triplicate against positive and negative controls. Anti-inflammatory activity measured by relative decrease in cytokine release in irritant-treated tissue compared to non-irritant treated tissue.
(§4) The separate active components of an example according to the invention were tested, along with some combinations in pairs and one combination lacking the salicylic acid. Where these actives were applied, they were in the same w/w ratio as in the example composition, example 9.

EpiDerm skin model = assay: MTT viability, EpiDerm skin model
TNF-α = assay: In vitro EpiDerm skin model, PMA irritant: TNF-α release; details: for TNFα + PMA / TNFα no PMA: EpiDerm skin model; for TNFα + PMA: + PMA irritant; for TNFα no PMA: no PMA irritant
Method: as §1, §2, §3, §4

IL-8 = assay: In vitro EpiDerm skin model, PMA irritant: IL-8 release; details: no PMA irritant (first IL-8 column, c6)
Method: as §1, §2, §3, §4

## CC1(C)[C@@H](O[C@H]2O[C@H](C(=O)[O-])[C@@H](O)[C@H](O)[C@H]2O[C@@H]2O[C@H](C(=O)[O-])[C@@H](O)[C@H](O)[C@H]2O)CC[C@]2(C)[C@H]3C(=O)C=C4[C@@H]5C[C@@](C)(C(=O)O)CC[C@]5(C)CC[C@@]4(C)[C@]3(C)CC[C@@H]12.[K+].[K+] [Dipotassium glycyrrhizinate (GLYR)]
IL-6
  IL-6 + PMA: 7.591 pg/mL
  IL-6 no PMA: -1.781 pg/mL
EpiDerm skin model
  MTT < 95%: 93.7%
TNF-α
  TNFα + PMA: 78.48 pg/mL
  TNFα no PMA: -0.636 pg/mL
IL-8
  IL-8 no PMA: 44.413 pg/mL

## NC(=O)c1cccnc1 [Nicotinamide (NA)]
IL-6
  IL-6 + PMA: -2.712 pg/mL
  IL-6 no PMA: -4.294 pg/mL
EpiDerm skin model
  MTT < 95%: 96.8%
TNF-α
  TNFα + PMA: 40.202 pg/mL
  TNFα no PMA: -0.171 pg/mL
IL-8
  IL-8 no PMA: 47.54 pg/mL

## C[C@]12CCC(=O)C=C1CC[C@@H]1[C@@H]2[C@@H](O)C[C@@]2(C)[C@H]1CC[C@]2(O)C(=O)CO [Positive control (hydrocortisone)]
IL-6
  IL-6 + PMA: -4.358 pg/mL
TNF-α
  TNFα + PMA: -0.378 pg/mL

## O=C(O)c1ccccc1O [Salicylic acid (SCA)]
IL-6
  IL-6 + PMA: 6.159 pg/mL
  IL-6 no PMA: -1.445 pg/mL
EpiDerm skin model
  MTT < 95%: 103.2%
TNF-α
  TNFα + PMA: 12.265 pg/mL
  TNFα no PMA: -0.068 pg/mL
IL-8
  IL-8 no PMA: 72.757 pg/mL

## CC(O)C(=O)[O-].[Na+] (stereo not drawn) [Sodium Lactate (SLA)]
IL-6
  IL-6 + PMA: 22.6 pg/mL
  IL-6 no PMA: 4.909 pg/mL
EpiDerm skin model
  MTT < 95%: 99.1%
TNF-α
  TNFα + PMA: 92.434 pg/mL
  TNFα no PMA: 0.882 pg/mL
IL-8
  IL-8 no PMA: 104.549 pg/mL

## O=C(O)c1ccccc1O [salicylic acid, reference compound]
TNF-α; irritant (PMA) treated EpiDerm skin model, cytokines TNF-α, IL-6 and IL-8 taken together
  anti-inflammatory action (reduction in cytokine release): acts inter alia as an anti-inflammatory
